{
  "source": "ChEMBL document CHEMBL5316293",
  "about": "“Novel Small-Molecule PD-L1 Inhibitor Induces PD-L1 Internalization and Optimizes the Immune Microenvironment” (J Med Chem, 2023)",
  "key": {"[1]": {"tested_on": "MC38-hPD-L1", "experiment": "Antitumor activity against humanized mouse MC38-hPD-L1 cells implanted in hPD-1 knockin C57BL/6 mouse assessed as tumor growth inhibition at 25 mg/kg, ip administered for 12 days starting from day 7 post tumor implantation and measured every 2 days relative to control", "assay_type": "functional", "details": "MC38-hPD-L1, 288 h, time 12 day, read-out: TGI"}, "[2]": {"tested_on": "MC38-hPD-L1", "experiment": "Antitumor activity against humanized mouse MC38-hPD-L1 cells implanted in hPD-1 knockin C57BL/6 mouse assessed as reduction in MDSC cells at 10 to 25 mg/kg, ip administered for 12 days starting from day 7 post tumor implantation by flow cytometry analysis", "assay_type": "functional, organism-based", "details": "dose 10-25 mg/kg, time 12.0 day"}, "[3]": {"species_on_record": "Homo sapiens", "experiment": "Internalization of PD-L1 in cytoplasm of human RKO cells assessed as increase in PD-L1 concentration in cytoplasm at 1 micromol/L incubated for 6 hrs by fluorescence microscopy", "assay_type": "functional, cell-based", "details": "dose 1.0 µmol/L"}, "[4]": {"experiment": "Toxicity in ICR mouse assessed as animal death at 5000 mg/kg, po administered via gavage for 2 weeks", "assay_type": "organism-based", "details": "in vivo, 336 h"}, "[5]": {"tested_on": "MC38-hPD-L1", "experiment": "Antitumor activity against humanized mouse MC38-hPD-L1 cells implanted in hPD-1 knockin C57BL/6 mouse assessed as increase in CD8-positive T cells at 10 to 25 mg/kg, ip administered for 12 days starting from day 7 post tumor implantation by flow cytometry analysis", "assay_type": "functional, organism-based", "details": "dose 10-25 mg/kg, time 12.0 day"}, "[6]": {"experiment": "Toxicity in ICR mouse assessed as reduction in liver weight at 500 to 5000 mg/kg, po administered via gavage for 2 weeks", "assay_type": "organism-based", "details": "in vivo, 336 h, dose 500-5000 mg/kg"}, "[7]": {"tested_on": "LLC-hPD-L1", "experiment": "Antitumor activity against humanized mouse LLC-hPD-L1 cells implanted in hPD-1 knockin C57BL/6 mouse assessed as increase in IFN-gamma level at 10 to 25 mg/kg, ip administered for 12 days starting from day 7 post tumor implantation by flow cytometry analysis", "assay_type": "functional, organism-based", "details": "dose 10-25 mg/kg, time 12.0 day"}, "[8]": {"tested_on": "LLC-hPD-L1", "experiment": "Antitumor activity against humanized mouse LLC-hPD-L1 cells implanted in hPD-1 knockin C57BL/6 mouse assessed as reduction in Treg cells at 10 to 25 mg/kg, ip administered for 12 days starting from day 7 post tumor implantation by flow cytometry analysis", "assay_type": "functional, organism-based", "details": "dose 10-25 mg/kg, time 12.0 day"}, "[9]": {"tested_on": "MC38-hPD-L1", "experiment": "Antitumor activity against humanized mouse MC38-hPD-L1 cells implanted in hPD-1 knockin C57BL/6 mouse assessed as macrophage polarization into M1 phenotype at 25 mg/kg, ip administered for 12 days starting from day 7 post tumor implantation by flow cytometry analysis", "assay_type": "functional, organism-based", "details": "time 12.0 day"}, "[10]": {"tested_on": "MC38-hPD-L1", "experiment": "Antitumor activity against humanized mouse MC38-hPD-L1 cells implanted in hPD-1 knockin C57BL/6 mouse assessed as increase in M1 macrophages at 10 to 25 mg/kg, ip administered for 12 days starting from day 7 post tumor implantation by flow cytometry analysis", "assay_type": "functional, organism-based", "details": "dose 10-25 mg/kg, time 12.0 day"}, "[11]": {"tested_on": "MC38-hPD-L1", "experiment": "Antitumor activity against humanized mouse MC38-hPD-L1 cells implanted in hPD-1 knockin C57BL/6 mouse assessed as reduction in Treg cells at 10 to 25 mg/kg, ip administered for 12 days starting from day 7 post tumor implantation by flow cytometry analysis", "assay_type": "functional, organism-based", "details": "dose 10-25 mg/kg, time 12.0 day"}, "[12]": {"experiment": "Antitumor activity against humanized mouse LLC-hPD-L1 cells implanted in hPD-1 knockin C57BL/6 mouse assessed as tumor growth inhibition at 10 mg/kg, ip administered for 12 days starting from day 7 post tumor implantation and measured every 2 days relative to control", "assay_type": "functional", "details": "LLC-hPD-L1, 288 h, time 12 day, read-out: TGI"}, "[13]": {"tested_on": "LLC-hPD-L1", "experiment": "(§1) Antitumor activity against humanized mouse LLC-hPD-L1 cells implanted in hPD-1 knockin C57BL/6 mouse assessed as reduction in tumor cell proliferation by measuring reduction in Ki67 expression administered intraperitoneally for 12 days starting from day 7 post tumor implantation by immunohistochemistry analysis", "assay_type": "functional, cell-based", "details": "dose 10-25 mg/kg, route ip, time 12.0 day"}, "[14]": {"experiment": "Toxicity in ICR mouse assessed as reduction in lungs weight at 500 to 5000 mg/kg, po administered via gavage for 2 weeks", "assay_type": "organism-based", "details": "in vivo, 336 h, dose 500-5000 mg/kg"}, "[15]": {"experiment": "Cmax in ICR mouse at 5 mg/kg, iv", "assay_type": "ADME, organism-based", "design": "dose 5 mg/kg, route iv", "details": "in vivo"}, "[16]": {"tested_on": "MC38-hPD-L1", "experiment": "Antitumor activity against humanized mouse MC38-hPD-L1 cells implanted in hPD-1 knockin C57BL/6 mouse assessed as increase in IFN-gamma level at 10 to 25 mg/kg, ip administered for 12 days starting from day 7 post tumor implantation by flow cytometry analysis", "assay_type": "functional, organism-based", "details": "dose 10-25 mg/kg, time 12.0 day"}, "[17]": {"tested_on": "LLC-hPD-L1", "experiment": "Antitumor activity against humanized mouse LLC-hPD-L1 cells implanted in hPD-1 knockin C57BL/6 mouse assessed as increase in CD69-positive CD137-positive T cells at 10 to 25 mg/kg, ip administered for 12 days starting from day 7 post tumor implantation by flow cytometry analysis", "assay_type": "functional, organism-based", "details": "dose 10-25 mg/kg, time 12.0 day"}, "[18]": {"biological_target": "Programmed cell death 1 ligand 1 (Homo sapiens, UniProt Q9NZQ7)", "sequence (Q9NZQ7 whole entry, the tested form may be a part)": "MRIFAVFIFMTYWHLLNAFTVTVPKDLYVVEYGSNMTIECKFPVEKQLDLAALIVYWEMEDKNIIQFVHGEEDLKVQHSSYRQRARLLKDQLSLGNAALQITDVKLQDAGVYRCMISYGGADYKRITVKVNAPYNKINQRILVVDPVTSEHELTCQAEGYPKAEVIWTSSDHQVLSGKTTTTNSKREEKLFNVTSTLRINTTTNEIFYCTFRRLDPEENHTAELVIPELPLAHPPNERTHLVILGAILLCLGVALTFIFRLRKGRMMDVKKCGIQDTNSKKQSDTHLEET", "experiment": "Inhibition of PD-1 Fc IgG fusion protein binding to PD-L1 in human NCI-H460 cells incubated for 6 hrs by DAPI/PD-1 anti-human IgG DyLight 488 staining based fluorescence microscopy", "assay_type": "cell-based"}, "[19]": {"experiment": "Toxicity in hPD-1 knockin C57BL/6 mouse implanted with humanized mouse LLC-hPD-L1 cells assessed as reduction in body weight at 10 to 25 mg/kg, ip administered for 12 days starting from day 7 post tumor implantation and measured every 3 to 4 days", "assay_type": "organism-based", "details": "in vivo, 288 h, dose 10-25 mg/kg, time 12 day"}, "[20]": {"experiment": "Half life in ICR mouse at 5 mg/kg, iv", "assay_type": "ADME, organism-based", "details": "in vivo"}, "[21]": {"tested_on": "MC38-hPD-L1", "experiment": "Antitumor activity against humanized mouse MC38-hPD-L1 cells implanted in hPD-1 knockin C57BL/6 mouse assessed as increase in GzmB level at 10 to 25 mg/kg, ip administered for 12 days starting from day 7 post tumor implantation by flow cytometry analysis", "assay_type": "functional, organism-based", "details": "dose 10-25 mg/kg, time 12.0 day"}, "[22]": {"experiment": "Toxicity in ICR mouse assessed as body weight loss at 500 to 5000 mg/kg, po administered via gavage for 2 weeks", "assay_type": "organism-based", "details": "in vivo, 336 h, dose 500-5000 mg/kg"}, "[23]": {"tested_on": "LLC-hPD-L1", "experiment": "Antitumor activity against humanized mouse LLC-hPD-L1 cells implanted in hPD-1 knockin C57BL/6 mouse assessed as macrophage polarization into M1 phenotype at 25 mg/kg, ip administered for 12 days starting from day 7 post tumor implantation by flow cytometry analysis", "assay_type": "functional, organism-based", "details": "time 12.0 day"}, "[24]": {"biological_target": "Programmed cell death protein 1/Programmed cell death 1 ligand 1 (Homo sapiens) (UniProt Q15116+Q9NZQ7)", "experiment": "Inhibition of PD-1/PD-L1 interaction in human NCI-H358 cells harboring high level PD-L1 expression assessed as increase in transcriptional-mediated bioluminescent signal preincubated with compound followed by washout and further cultured with Jurkat cells transfected with NFAT luciferase by bio-glo reagent based assay", "assay_type": "cell-based", "details": "dose 50-200 nM"}, "[25]": {"species_on_record": "Homo sapiens", "experiment": "Internalization of PD-L1 in cytoplasm of human RKO cells assessed as decrease in PD-L1 concentration in cell membrane at 1 micromol/L incubated for 6 hrs by fluorescence microscopy", "assay_type": "functional, cell-based", "details": "dose 1.0 µmol/L"}, "[26]": {"experiment": "Toxicity in ICR mouse assessed as reduction in kidney weight at 500 to 5000 mg/kg, po administered via gavage for 2 weeks", "assay_type": "organism-based", "details": "in vivo, 336 h, dose 500-5000 mg/kg"}, "[27]": {"tested_on": "LLC-hPD-L1", "experiment": "as §1, with “increase” for “reduction”, “apoptosis” for “proliferation”, “cleaved caspase-3 level” for “Ki67 expression”", "assay_type": "functional, cell-based", "details": "dose 10-25 mg/kg, route ip, time 12.0 day"}, "[28]": {"tested_on": "MC38-hPD-L1", "experiment": "Antitumor activity against humanized mouse MC38-hPD-L1 cells implanted in hPD-1 knockin C57BL/6 mouse assessed as tumor growth inhibition at 10 mg/kg, ip administered for 12 days starting from day 7 post tumor implantation and measured every 2 days relative to control", "assay_type": "functional", "details": "MC38-hPD-L1, 288 h, time 12 day, read-out: TGI"}},
  "note": "Calls of active or inactive are those of the source. No cut-off for these calls is given here.",
  "data": [
    {"smiles": "COc1cc2c(cc1CN[C@@H](CO)C(=O)O)C(=O)N(c1cccc(-c3ccccc3)c1C)C2=O", "values": [
      {"measurement": "inhibition in vivo at 25 mg/kg", "setting": "[1]", "value": 88.8, "unit": "%"},
      {"measurement": "Activity", "setting": "[2]", "value": "Active"},
      {"measurement": "Activity", "setting": "[3]", "value": "Active"},
      {"measurement": "Activity", "setting": "[4]", "value": "Non-Toxic"},
      {"measurement": "Activity", "setting": "[5]", "value": "Active"},
      {"measurement": "Activity", "setting": "[6]", "value": "Non-Toxic"},
      {"measurement": "Activity", "setting": "[7]", "value": "Active"},
      {"measurement": "Activity", "setting": "[8]", "value": "Active"},
      {"measurement": "Activity", "setting": "[9]", "value": "Active"},
      {"measurement": "Activity", "setting": "[10]", "value": "Active"},
      {"measurement": "Activity", "setting": "[11]", "value": "Active"},
      {"measurement": "inhibition in vivo at 10 mg/kg", "setting": "[12]", "value": 57.2, "unit": "%"},
      {"measurement": "Activity", "setting": "[13]", "value": "Dose-Dependent Effect"},
      {"measurement": "Activity", "setting": "[14]", "value": "Non-Toxic"},
      {"measurement": "Cmax", "setting": "[15]", "value": 6290, "unit": "ng/mL"},
      {"measurement": "Activity", "setting": "[16]", "value": "Active"},
      {"measurement": "Activity", "setting": "[17]", "value": "Active"},
      {"measurement": "EC50", "setting": "[18]", "value": 121, "unit": "nM"},
      {"measurement": "Activity", "setting": "[19]", "value": "Non-Toxic"},
      {"measurement": "half-life", "setting": "[20]", "value": 9.78, "unit": "h"},
      {"measurement": "Activity", "setting": "[21]", "value": "Active"},
      {"measurement": "Activity", "setting": "[22]", "value": "Non-Toxic"},
      {"measurement": "Activity", "setting": "[23]", "value": "Active"},
      {"measurement": "inhibition", "setting": "[24]", "value": "Dose-Dependent Effect"},
      {"measurement": "Activity", "setting": "[25]", "value": "Active"},
      {"measurement": "Activity", "setting": "[26]", "value": "Non-Toxic"},
      {"measurement": "Activity", "setting": "[27]", "value": "Dose-Dependent Effect"},
      {"measurement": "inhibition in vivo at 10 mg/kg", "setting": "[28]", "value": 65.9, "unit": "%"}
    ]}
  ]
}
